Assay results published in US20260199564A1, “METHOD OF PREVENTING BLOOD COAGULATION AND DRUG-ELUTING IMPLANT FOR PERCUTANEOUS CORONARY INTERVENTION” (priority 2023, published 2026).

How the values were obtained:
CYP3A4 = target: T1, CYP3A4 (Homo sapiens, UniProt P08684); assay: Cytochrome P450 inhibition in human liver microsomes using LC-MS/MS, CYP3A4; assay type: in vitro ADME; details: for IC50 shift (fold difference): ratio of IC50 with −NADPH to IC50 with +NADPH in the 30 min pre-incubation; for IC50: pooled human liver microsomes
T1 construct: with pooled human liver microsomes; from tissue; host or cells: pooled human liver microsomes
Procedure: (§1) In IC50 shift experiments, CK (0.2 μL prepared in DMSO) was pre-incubated for 30 min at 37° C., at 8 different concentrations, with pooled human liver microsomes (0.1-1 mg/mL, depending on which enzyme was assessed) in the absence or presence of 1 mM NADPH in 100 μL of potassium phosphate buffer (100 mM, pH 7.4) and MgCl2 (2.5 mM). After the pre-incubation, a substrate mixture containing a probe substrate in 100 μL of potassium phosphate buffer (100 mM, pH 7.4), MgCl2 (2.5 mM), and NADPH (1 mM) was added for measurement of the corresponding P450 activities. Incubations were terminated by addition of 200 μL methanol. Samples were then extracted and centrifuged and the supernatant was subjected to validated LC-MS/MS analysis.

Human platelets = assay: Platelet aggregation test (anticoagulant test), collagen-treated platelet-rich plasma; assay type: cell-based; details: PRP, 5 μg/ml collagen, CK 0-80 μM
Procedure: • a. A 20 mM CK stock solution is prepared with DMSO and is diluted with 1×PBS to the different working concentrations (0, 62.5, 125, 250, 500, 1000, and 2000 μM) before experiments.
The donator should rest and fast for 12 h and not smoke before blood collection. Medication such as antihistamines, antibiotics, Aspirin, and anti-inflammatory drugs are not allowed to take 10-14 days before tests due to the potential of affecting platelet function.
To ensure the absence of coagulation, the blood sample should be fully mixed with the anticoagulant and stored at 24-27° C. It is recommended to conduct the platelet aggregation test within 30-150 min after blood sample collection.
Slightly invert the blood collection tubes 3-4 times to resuspend the blood cells. Centrifuge the samples at 170×g for 7 min and transfer the supernatants to the new tubes. The samples should be used within 5-10 min after separation; otherwise, the samples should be stored at 4° C. to avoid agglutination. […]
To test the effect of CK on the function of platelet aggregation, different concentrations of CK (0, 2.5, 5, 10, 20, 40, and 80 μM) are added to 0.25 ml PRP. […] OD value is measured with a spectrometer at 650 nm, and the value is converted into an aggregate percentage.
The aggregation percentage of platelet is calculated with the following formula: […]

TNF-α = assay: LPS-induced TNF-α expression in HUVECs; assay type: cell-based, human; details: 1, 3, 10 μM for 1 h prior to LPS (1 μg/ml) stimulation for 24 h
Procedure: HUVECs were treated for 1 h with ginsenoside CK (1 μM, 3 μM, and 10 μM) prior to LPS (1 μg/ml) stimulation for 24 h (A) IL-6 (B) TNF-αexpression. Values are means±SEM of 3 independent experiments. Statistical significance assessed by one-way ANOVA followed by Scheffe post-hoc test for multiple comparisons (***P<0.01, *P<0.05 vs LPS).
Treatment of HUVECs with LPS (1 μg/ml) increased IL-6 and TNF-αexpression. To determine whether LPS-induced IL-6 and TNF-αexpression was affected by ginsenoside CK, HUVECs were treated for 1 h with ginsenoside CK (1 μM, 3 μM, and 10 μM) prior to LPS (1 μg/ml) stimulation for 24 h.

CYP2C8 = target: T2, CYP2C8 (Homo sapiens, UniProt P10632); assay: Cytochrome P450 inhibition in human liver microsomes using LC-MS/MS, CYP2C8; assay type: in vitro ADME
T2 construct: with pooled human liver microsomes; from tissue; host or cells: pooled human liver microsomes
T2 sequence (P10632 1-490): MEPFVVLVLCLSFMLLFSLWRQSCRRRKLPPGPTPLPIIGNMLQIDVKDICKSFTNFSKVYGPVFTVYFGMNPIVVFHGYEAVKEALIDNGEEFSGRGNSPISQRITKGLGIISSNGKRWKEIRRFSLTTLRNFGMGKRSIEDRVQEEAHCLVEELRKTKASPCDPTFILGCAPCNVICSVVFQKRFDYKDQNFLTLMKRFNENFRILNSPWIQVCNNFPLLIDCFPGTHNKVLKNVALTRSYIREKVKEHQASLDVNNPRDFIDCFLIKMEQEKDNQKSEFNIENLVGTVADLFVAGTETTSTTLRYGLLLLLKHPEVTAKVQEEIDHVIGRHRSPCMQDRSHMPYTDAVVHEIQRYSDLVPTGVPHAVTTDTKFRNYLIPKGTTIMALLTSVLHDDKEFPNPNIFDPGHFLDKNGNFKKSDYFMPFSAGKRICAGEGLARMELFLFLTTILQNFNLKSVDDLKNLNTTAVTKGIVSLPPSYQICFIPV
Procedure: as §1

CYP2B6 = target: T3, CYP2B6 (Homo sapiens, UniProt P20813); assay: Cytochrome P450 inhibition in human liver microsomes using LC-MS/MS, CYP2B6; assay type: in vitro ADME
T3 construct: with pooled human liver microsomes; from tissue; host or cells: pooled human liver microsomes
T3 sequence (P20813 1-491): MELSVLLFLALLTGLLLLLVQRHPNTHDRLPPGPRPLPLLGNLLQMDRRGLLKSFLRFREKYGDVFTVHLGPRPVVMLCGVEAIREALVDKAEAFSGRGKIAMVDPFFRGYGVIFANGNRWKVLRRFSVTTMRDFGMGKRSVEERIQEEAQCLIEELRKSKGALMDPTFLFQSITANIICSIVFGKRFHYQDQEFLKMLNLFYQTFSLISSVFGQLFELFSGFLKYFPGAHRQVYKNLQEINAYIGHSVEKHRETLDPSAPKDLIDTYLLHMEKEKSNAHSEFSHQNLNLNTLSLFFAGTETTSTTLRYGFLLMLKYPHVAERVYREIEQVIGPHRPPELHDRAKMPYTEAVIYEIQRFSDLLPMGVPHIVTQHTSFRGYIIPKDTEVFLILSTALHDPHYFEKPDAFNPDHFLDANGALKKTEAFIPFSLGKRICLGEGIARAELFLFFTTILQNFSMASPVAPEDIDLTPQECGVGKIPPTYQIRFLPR
Procedure: as §1

T1 sequence (P08684 whole entry): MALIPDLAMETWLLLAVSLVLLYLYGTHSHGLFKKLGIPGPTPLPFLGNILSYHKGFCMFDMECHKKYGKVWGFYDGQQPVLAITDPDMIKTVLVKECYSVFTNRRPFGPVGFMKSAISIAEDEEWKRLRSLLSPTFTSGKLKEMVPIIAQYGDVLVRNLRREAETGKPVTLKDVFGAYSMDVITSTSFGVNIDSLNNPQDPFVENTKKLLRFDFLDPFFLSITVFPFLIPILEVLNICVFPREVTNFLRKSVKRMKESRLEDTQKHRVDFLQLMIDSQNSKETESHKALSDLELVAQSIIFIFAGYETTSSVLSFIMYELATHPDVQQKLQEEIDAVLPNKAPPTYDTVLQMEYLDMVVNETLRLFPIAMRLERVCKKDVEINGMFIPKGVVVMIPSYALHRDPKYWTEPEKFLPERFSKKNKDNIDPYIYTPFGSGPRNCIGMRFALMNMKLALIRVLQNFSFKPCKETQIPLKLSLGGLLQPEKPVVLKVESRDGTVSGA

CC(C)=CCC[C@](C)(O[C@@H]1O[C@H](CO)[C@@H](O)[C@H](O)[C@H]1O)[C@H]1CC[C@]2(C)[C@@H]1[C@H](O)C[C@@H]1[C@@]3(C)CC[C@H](O)C(C)(C)[C@@H]3CC[C@]12C [CK, Ginsenoside compound K]
IC50 shift (fold difference) (CYP3A4; CYP3A4(M), midazolam as substrate): 0.98 fold
IC50 shift (fold difference) (CYP3A4; CYP3A4(T), testosterone as substrate): 1.06 fold
IC50 (CYP3A4; substrate Midazolam): 9.76 µM
IC50 (CYP3A4; substrate Testosterone): 13.9 µM
platelet aggregation level after treating the platelet with CK (Human platelets): decreased
LPS-induced TNF-α expression (TNF-α): significantly decreased
inhibition at concentration of 50 μM (CYP2C8; 50 μM, 30 min pre-incubation in the presence or absence of NADPH): did not inhibit
IC50 (CYP2C8; pooled human liver microsomes, substrate Amodiaquine): > 50 µM
IC50 (CYP2B6; pooled human liver microsomes, substrate Bupropion): 14.8 µM
IC50 shift (fold difference) (CYP2B6; ratio of IC50 with −NADPH to IC50 with +NADPH in the 30 min pre-incubation): 1.08 fold
